{
  "source": "paper PMC8466300",
  "about": "“Investigating the Central Nervous System Disposition of Actinomycin D: Implementation and Evaluation of Cerebral Microdialysis and Brain Tissue Measurements Supported by UPLC-MS/MS Quantification” (Pharmaceutics, 2021)",
  "key": {"[1]": {"test": "Plasma and brain tissue concentrations after intravenous bolus injection (CNS disposition)", "format": "in vivo, mice", "conditions": "for Brain-to-Plasma Ratio: total concentrations", "protocol": "The experiments were carried out in accordance with the European regulations for care and use of laboratory animals (2010/63/EU) under the German license number G-187/18 and the internal reference number DKFZ374, approved by the responsible regional council (Regierungspräsidium Karlsruhe, Germany). Female 8-week-old NSG mice (NOD.Cg-Prkdc^scid Il2rg^tm1Wjl/SzJ-NOD-SCID gamma-mice) with a weight of approximately 25 g were used for the studies. For microdialysis experiments, a microdialysis guide cannula was stereotactically implanted into the right striatum and stabilized with screws and dental acrylic cement. Mice received analgesia (metamizole) and anesthesia with isoflurane during surgery. After six days of recovery, the microdialysis procedure was initiated. A microdialysis probe (CMA7, 1 mm, molecular cut-off 55 kDa, CMA Microdialysis AB, Kist, Sweden) was inserted through the guide cannula and connected to a pump system operating at a constant flow rate of 0.5 µL/min Ringer-1 % bovine serum albumin (BSA) solution. Throughout the study, mice could freely move. Microdialysis samples were serially collected each hour. Because the number of blood collections in individual mice is limited, we estimated the optimal timepoints for a pharmacokinetic feasibility study by allometric simulation of actinomycin D’s pharmacokinetic profile in mice according to published data in humans. For the allometric simulation, mouse plasma pharmacokinetic profiles were simulated by allometrically scaling the clearance and volumes parameters using classic exponents (0.75 for clearances and 1 for volumes) […], based on 0.5 mg/kg dosage. […] Therefore, we chose to take blood samples 0.75, 6, and 22 h after intravenous bolus injection into the tail vein for the assay’s feasibility pharmacokinetic experiment. Three animals received an intravenous bolus injection of 0.5 mg/kg actinomycin D in 0.125 mL per mouse (25 g) of a 0.1 mg/mL dosing solution. This dosage corresponds to the usual therapy protocols in humans according to allometric scaling. Full blood samples were transferred into citrate tubes (Sarstedt, Germany) and centrifuged at 1600× g for 10 min to generate plasma samples, which were stored at −80 °C until analysis. For determination of actinomycin D disposition in the CNS, brain tissue, and plasma samples were harvested following euthanasia with increasing concentrations of CO2 at 2 h (three animals) or 22 h (four animals) after intravenous bolus injection of 0.5 mg/kg actinomycin D. Samples were stored at −80 °C until analysis. For validation of the UPLC-MS/MS quantification, blank plasma from 6 naïve mice was used and blank brain tissue was obtained from 2 unexposed mice. Whole brain tissue was homogenized using a Bead Ruptor 4 homogenizer (Omni International Inc, Kennesaw, GA, USA) in acetonitrile (ACN)/water (1/19, v/v) + 0.5 % Triton X and 0.1 % formic acid (FA) (100 mg brain tissue/mL) in 2.0 mL tubes containing ~25 glass beads (0.75–1 mm; Carl Roth GmbH, Karlsruhe, Germany) for 2 × 1 min.\nFor protein precipitation of plasma microsamples, an excess of ACN (50 µL) with 0.1% FA containing the IS was applied to an Impact® 96-well protein precipitation plate (Phenomenex, Torrance, CA, USA). Subsequently, 20 µL of the plasma samples were added and the plates sealed and shaken for 1 min. Brain tissue homogenate samples were processed accordingly. For protein depletion, samples were filtered into a 96-well collection plate (Waters, Milford, MA, USA) by applying positive pressure with a 96-well positive pressure unit (Waters, Milford, MA, USA) operated with air overpressure of 5 psi. After addition of 40 µL of water containing 0.1% FA, the collection plates were sealed, shaken, and extracts injected onto the UPLC system."}, "in vitro": {"test": "in vitro", "conditions": "mouse, plasma", "protocol": "To determine the previously unknown unbound fraction of actinomycin D in plasma and brain tissue homogenate, we performed rapid equilibrium dialysis (RED) in duplicate. For this, samples were spiked with drug solutions that were prepared in plasma or brain tissue homogenate to obtain minimally diluted samples (30 ng/mL for plasma and 30 ng/g for brain tissue). The free actinomycin D tissue fraction was also quantified in a pooled sample of brain tissue homogenates from the three mice euthanized 2 h after dosing. Determinations were performed on a RED apparatus (ThermoFisher Scientific, Waltham, MA, USA) according to the manufacturer´s instructions under gentle agitation for 12 h at 37 °C."}, "[2]": {"system": "L-MDR1 cells (over-expressing human P-gp/ABCB1)", "conditions": "ratio of IC50 in P-gp over-expressing versus parental cells", "protocol": "(§1) To confirm the P-gp substrate characteristics of actinomycin D, we conducted growth inhibition and uptake assays in a cell line over-expressing human P-gp/ABCB1 (L-MDR1 cells) in comparison to the respective parental cell line (LLC-PK1). L-MDR1 cells were kindly provided by A. H. Schinkel (The Netherlands Cancer Institute, Division of Experimental Therapy, Amsterdam, The Netherlands). The cells were cultured under standard cell culture conditions with medium M199 supplemented with 10% FCS, 2 mM glutamine, 100 U/mL penicillin, and 100 µg/mL streptomycin sulfate. The culture medium for L-MDR1 was supplemented with 0.64 µM vincristine to maintain P-gp/ABCB1 expression. One day before using the cells in the assays, both cell lines were fed with vincristine-free culture medium.\n(§2) The assays were performed in quadruplicate, as described previously, using ten concentrations of actinomycin D from 0.0005–10 µM in octuplets.\n(§3) Calibration curves were determined with 1/x^2 weighted linear regression using peak area ratios of the analyte to IS. This calculation was performed using the software TargetLynx V4.2 (Waters, Milford, MA, USA). Plasma pharmacokinetics were determined with the software Kinetica (v 5.0; Thermo Fisher Scientific, Waltham, MA, USA). Standard calculations were performed using Microsoft Office Excel 2010 ([…]). Concentration–response curves and IC50 values were calculated by GraphPad Prism version 9.0.0 (GraphPad Software Inc., La Jolla, CA, USA) according to a sigmoid Emax model."}, "LLC-PK1 cells": {"system": "LLC-PK1 cells", "conditions": "read-out: IC50 (proliferation); LLC-PK1 parental cells; four experiments, each concentration in octuplet; ten concentrations 0.0005–10 µM; sigmoid Emax model", "protocol": "as §1, §2, §3"}, "[3]": {"conditions": "7 months at −20 °C; cited from earlier work"}},
  "note": "Where “and” joins values, the source holds several entries; their conditions need not be identical. Equal values may be shown once. *1 amine or outer side, *2 acyl side, *3 side chain or, on linkers, in order; H or OH if unused. Where a SMILES comes first, the peptide text is derived from it. Bridges are numbered along the chain shown (N, C = ends). Roman numbers before positions name the chains, in order. [ ]: non-standard residue; d: D form. Actinocin(9to1) = Cc1c2oc3c(C)ccc(C(=O)[*:1])c3nc-2c(C(=O)[*:2])c(N)c1=O; NMeV = CN[C@H](C(=O)O)C(C)C; Sar = CNCC(=O)O",
  "data": [
    {"smiles": "Cc1c2oc3c(C)ccc(C(=O)N[C@@H]4C(=O)N[C@H](C(C)C)C(=O)N5CCC[C@H]5C(=O)N(C)CC(=O)N(C)[C@@H](C(C)C)C(=O)O[C@@H]4C)c3nc-2c(C(=O)N[C@@H]2C(=O)N[C@H](C(C)C)C(=O)N3CCC[C@H]3C(=O)N(C)CC(=O)N(C)[C@@H](C(C)C)C(=O)O[C@@H]2C)c(N)c1=O", "note": "[actinomycin D, Actinomycin D] (I: T[dV]P[Sar][NMeV] / II: T[dV]P[Sar][NMeV]; ester I:1-I:C, II:1-II:C; linker I:N-II:N via Actinocin(9to1))", "values": [
      {"measurement": "level at time molar at 2 h", "setting": "[1]; female, NSG (NOD.Cg-Prkdc^scid Il2rg^tm1Wjl/SzJ), mouse, brain, iv, mice, 0.5 mg/kg i.v., after 2 h, read-out: brain tissue concentration", "result": "~3", "unit": "nM"},
      {"measurement": "level at time molar at 22 h", "setting": "[1]; female, NSG (NOD.Cg-Prkdc^scid Il2rg^tm1Wjl/SzJ), mouse, brain, iv, mice, 0.5 mg/kg i.v., after 22 h, read-out: brain tissue concentration", "result": "~1.2", "unit": "nM"},
      {"measurement": "tissue level at time at 2 h", "setting": "[1]; female, NSG (NOD.Cg-Prkdc^scid Il2rg^tm1Wjl/SzJ), mouse, iv, mice, 0.5 mg/kg i.v., 2 h, whole brain homogenate after cardiac perfusion with PBS, UPLC-MS/MS, mean of 3 mice, read-out: Brain Actinomycin D (total brain tissue concentration)", "result": 4.1, "unit": "ng/g"},
      {"measurement": "level at 2 h", "setting": "[1]; female, NSG (NOD.Cg-Prkdc^scid Il2rg^tm1Wjl/SzJ), mouse, plasma, iv, mice, 0.5 mg/kg i.v., 2 h after administration, UPLC-MS/MS, mean of 3 mice, read-out: Plasma Actinomycin D", "result": "22.7 ± 3.9", "unit": "ng/mL"},
      {"measurement": "tissue level at time at 22 h", "setting": "[1]; female, NSG, mouse, iv, mice, 0.5 mg/kg i.v., 22 h, whole brain homogenate after cardiac perfusion with PBS, UPLC-MS/MS, mean of 4 mice, read-out: Brain Actinomycin D (total brain tissue concentration)", "result": "1.67 ± 0.77", "unit": "ng/g"},
      {"measurement": "level at 22 h", "setting": "[1]; female, NSG, mouse, plasma, iv, mice, 0.5 mg/kg i.v., 22 h after administration, UPLC-MS/MS, mean of 4 mice, read-out: Plasma Actinomycin D", "result": "3.4 ± 1.45", "unit": "ng/mL"},
      {"measurement": "Brain Actinomycin D (total brain tissue concentration)", "setting": "[1]; mice, 0.5 mg/kg i.v., 2 h, whole brain homogenate after cardiac perfusion with PBS, UPLC-MS/MS, mean of 3 mice, 0.5 mg/kg", "result": "4.14 ± 0.50", "unit": "ng/g"},
      {"measurement": "Brain-to-Plasma Ratio", "setting": "[1]; mice, 0.5 mg/kg i.v., 2 h, mean of 3 mice, 0.5 mg/kg", "result": "0.18 and 0.18 ± 0.03"},
      {"measurement": "Brain-to-Plasma Ratio", "setting": "[1]; mice, 0.5 mg/kg i.v., 2 h, mouse 1", "result": 0.21},
      {"measurement": "Brain-to-Plasma Ratio", "setting": "[1]; mice, 0.5 mg/kg i.v., 2 h, mouse 2", "result": 0.18},
      {"measurement": "Brain-to-Plasma Ratio", "setting": "[1]; mice, 0.5 mg/kg i.v., 2 h, mouse 3", "result": 0.16},
      {"measurement": "Brain-to-Plasma Ratio", "setting": "[1]; mice, 0.5 mg/kg i.v., 22 h, mean of 4 mice", "result": "0.53 ± 0.26"},
      {"measurement": "Brain-to-Plasma Ratio", "setting": "[1]; mice, 0.5 mg/kg i.v., 22 h, mouse 4", "result": 0.80},
      {"measurement": "Brain-to-Plasma Ratio", "setting": "[1]; mice, 0.5 mg/kg i.v., 22 h, mouse 5", "result": 0.37},
      {"measurement": "Brain-to-Plasma Ratio", "setting": "[1]; mice, 0.5 mg/kg i.v., 22 h, mouse 6", "result": 0.18},
      {"measurement": "Brain-to-Plasma Ratio", "setting": "[1]; mice, 0.5 mg/kg i.v., 22 h, mouse 7", "result": 0.77},
      {"measurement": "actinomycin D concentration in brain tissue homogenate", "setting": "[1]; mouse #1, 0.5 mg/kg i.v., 2 h, homogenate at 0.1 g tissue/mL, UPLC-MS/MS", "result": 0.409, "unit": "ng/mL"},
      {"measurement": "fraction unbound at 12 h, 30 ng/mL", "setting": "in vitro", "result": 0.231},
      {"measurement": "difference of IC50 L-MDR1 versus LLC-PK1", "setting": "[2]", "result": "> 100", "unit": "fold"},
      {"measurement": "IC50", "setting": "LLC-PK1 cells", "result": "21 ± 6", "unit": "nM"},
      {"measurement": "long-term stability in human plasma", "setting": "[3]", "result": "has already been demonstrated"}
    ]}
  ]
}
